Experimental data published in article PMC7761982, “FDA-Approved Drugs with Potent In Vitro Antiviral Activity against Severe Acute Respiratory Syndrome Coronavirus 2” (Pharmaceuticals, 2020).
Like-named read-outs stand apart in the source and are kept apart here.

Tests used:
NRC-03-nhCoV [1] = test: microbe, parasite or virus in culture; format: cell-based, SARS-CoV-2
NRC-03-nhCoV [2] = test: Viral adsorption mechanism, plaque infectivity reduction assay; format: cell-based, SARS-CoV-2
Experimental: The viral adsorption mechanism was assayed according to a protocol by Zhang and his colleagues with minor modifications. Vero-E6 cells were cultivated in a 6-well plate (10^5 cells/mL) for 24 h at 37 °C. Each tested drug was applied in 200 µL medium without supplements and co-incubated with the cells for 2 h at 4 °C. The inocula containing the non-absorbed drug were removed by washing cells three successive times with supplement-free medium. SARS-CoV-2 virus diluted to 104 PFU/well was co-incubated with the pretreated cells for 1 h, and then 3 mL DMEM supplemented with 2% agarose were added. Plates were left to solidify and then incubated at 37 °C to allow the formation of viral plaques. The plaques were fixed and stained as described above to calculate the percentage reduction in plaque formation compared to control wells, which comprised untreated Vero-E6 cells directly infected with NRC-03-nhCoV.

NRC-03-nhCoV [3] = test: Viral replication mechanism, plaque infectivity reduction assay; format: cell-based, SARS-CoV-2
Experimental: The impact of tested drug on viral replication was determined as previously described. Vero-E6 cells were cultivated in a 6-well plate (10^5 cell/mL) for 24 h at 37 °C. Virus was inoculated directly to the cells and incubated for 1 h at 37 °C. The inocula containing the non-adsorbed viral particles were removed by washing cells three successive times with supplement-free medium. The test compound was added in varying concentrations to infected cells for another 1 h contact time. After removing the inocula containing the tested drug, 3 mL of DMEM supplemented with 2% agarose were added to the cell monolayer. Plates were left to solidify and incubated at 37 °C until the appearance of viral plaques. Cell monolayers were fixed in 10% formalin solution for 1 h and stained with crystal violet. Control wells contained Vero-E6 cells incubated with the virus. Plaques were counted and the percentage reduction in plaque formation was compared to the control wells.

NRC-03-nhCoV [4] = test: Virucidal mechanism, plaque infectivity reduction assay; format: cell-based, SARS-CoV-2; conditions: for virucidal effect: concentration not given
Experimental: The virucidal mechanism was assayed following a previously described protocol. In a 6-well plate, Vero-E6 cells were cultivated (10^5 cells/mL) for 24 h at 37 °C and 200 µL of serum-free DMEM containing SARS-CoV-2 was added to each sample with promising inhibition. After 1 h incubation, the mixture was diluted 10-fold three times using serum-free medium, which still allowed viral particles to grow on Vero-E6 cells. Next, 100 µL of each dilution were added to the Vero-E6 cell monolayer. After 1 h contact time, a DMEM overlayer was added to the cell monolayer. Plates were left to solidify and incubated at 37 °C to allow the formation of viral plaques. The plaques were fixed and stained as described above to calculate the percentage reduction in plaque formation. This value was compared to control wells comprising cells infected with virus and not pretreated with the tested material.

SARS-CoV-2 [5] = test: Plaque reduction assay, anti-SARS-CoV-2 activity; format: cell-based; conditions: read-out: viral inhibition, SARS-CoV-2
MERS-CoV = test: microbe, parasite or virus in culture; format: cell-based; conditions: for antiviral effect on MERS-CoV compared with SARS-CoV-2: equal concentrations of drug, plaque reduction assay
SARS-CoV-2 [6] = conditions: read-out: IC50 against SARS-CoV-2 (reported); cited from earlier work
in vitro = conditions: African green monkey, CC50 (Vero-E6), half maximal cytotoxic concentration, MTT assay, Vero-E6 cells
[7] = Severe acute respiratory syndrome coronavirus 2, Vero C1008, 72 h, Vero-E6 cells, 72 h, crystal violet, reduction of virus-induced CPE by 50%, read-out: IC50 (NRC-03-nhCoV)
[8] = Severe acute respiratory syndrome coronavirus 2, Vero C1008, negative log of the IC50 value against SARS-CoV-2, read-out: pIC50 (converted)
[9] = Middle East respiratory syndrome-related coronavirus, read-out: viral inhibition, MERS-CoV
[10] = Severe acute respiratory syndrome coronavirus 2, read-out: Viral Adsorption, percent inhibition
[11] = Severe acute respiratory syndrome coronavirus 2, read-out: Viral Replication, percent inhibition
[12] = Severe acute respiratory syndrome coronavirus 2, read-out: Virucidal, percent inhibition

CC[C@H]1OC(=O)[C@H](C)[C@@H](O[C@H]2C[C@@](C)(OC)[C@@H](O)[C@H](C)O2)[C@H](C)[C@@H](O[C@@H]2O[C@H](C)C[C@H](N(C)C)[C@H]2O)[C@](C)(O)C[C@@H](C)CN(C)[C@H](C)[C@@H](O)[C@]1(C)O [Azithromycin]
IC50 (NRC-03-nhCoV [1]; [7]): 320 nM
IC50 (NRC-03-nhCoV [1]; [8]): 324 nM
inhibition at 0.16 µM (NRC-03-nhCoV [2]; Severe acute respiratory syndrome coronavirus 2, 0.16 µM, read-out: Viral Adsorption, percent inhibition): 0%
inhibition at 0.322 µM (NRC-03-nhCoV [2]; Severe acute respiratory syndrome coronavirus 2, 0.322 µM, read-out: Viral Adsorption, percent inhibition): 2%
inhibition at 0.64 µM (NRC-03-nhCoV [2]; Severe acute respiratory syndrome coronavirus 2, 0.64 µM, read-out: Viral Adsorption, percent inhibition): 27%
inhibition at 1.3 µM (NRC-03-nhCoV [2]; Severe acute respiratory syndrome coronavirus 2, 1.3 µM, read-out: Viral Adsorption, percent inhibition): ≤ 31%
inhibition at 0.16 µM (NRC-03-nhCoV [3]; Severe acute respiratory syndrome coronavirus 2, 0.16 µM, read-out: Viral Replication, percent inhibition): 0%
inhibition at 0.322 µM (NRC-03-nhCoV [3]; Severe acute respiratory syndrome coronavirus 2, 0.322 µM, read-out: Viral Replication, percent inhibition): 0%
inhibition at 0.64 µM (NRC-03-nhCoV [3]; Severe acute respiratory syndrome coronavirus 2, 0.64 µM, read-out: Viral Replication, percent inhibition): 2%
inhibition at 1.3 µM (NRC-03-nhCoV [3]; Severe acute respiratory syndrome coronavirus 2, 1.3 µM, read-out: Viral Replication, percent inhibition): 4%
inhibitory effect on virus replication (NRC-03-nhCoV [3]; concentration not given): negligible effect on viral replication
inhibition at 0.16 µM (NRC-03-nhCoV [4]; Severe acute respiratory syndrome coronavirus 2, 0.16 µM, read-out: Virucidal, percent inhibition): 12%
inhibition at 0.322 µM (NRC-03-nhCoV [4]; Severe acute respiratory syndrome coronavirus 2, 0.322 µM, read-out: Virucidal, percent inhibition): 34%
inhibition at 0.64 µM (NRC-03-nhCoV [4]; Severe acute respiratory syndrome coronavirus 2, 0.64 µM, read-out: Virucidal, percent inhibition): 51%
inhibition at 1.3 µM (NRC-03-nhCoV [4]; Severe acute respiratory syndrome coronavirus 2, 1.3 µM, read-out: Virucidal, percent inhibition): 51%
virucidal effect (NRC-03-nhCoV [4]): up to 51%
inhibition at 5 µM (SARS-CoV-2 [5]; Severe acute respiratory syndrome coronavirus 2, 5 µM (lowest concentration tested)): ~80%
inhibition at 10 µM (SARS-CoV-2 [5]; Severe acute respiratory syndrome coronavirus 2, 10 µM (highest concentration tested)): ~90%
inhibition at 5 µM (MERS-CoV; [9]): ~20%
inhibition at 10 µM (MERS-CoV; [9]): ~30%
IC50 (SARS-CoV-2 [6]): 2120 nM
CC50 (in vitro): 793000 nM

CC(=O)Oc1ccccc1C(=O)Nc1ncc([N+](=O)[O-])s1 [Nitazoxanide]
IC50 (NRC-03-nhCoV [1]; [7]): 1290 nM
IC50 (NRC-03-nhCoV [1]; [8]): 1290 nM
inhibition at 1.302 µM (NRC-03-nhCoV [2]; [10]): 0%
inhibition at 2.6 µM (NRC-03-nhCoV [2]; [10]): 1%
inhibition at 5.2 µM (NRC-03-nhCoV [2]; [10]): 11%
inhibition at 10.4 µM (NRC-03-nhCoV [2]; [10]): 11%
Viral Replication, percent inhibition (NRC-03-nhCoV [3]; 5.2 µM): Toxic
Viral Replication, percent inhibition (NRC-03-nhCoV [3]; 10.4 µM): Toxic
inhibition at 1.302 µM (NRC-03-nhCoV [3]; [11]): 35%
inhibition at 2.6 µM (NRC-03-nhCoV [3]; [11]): 40%
inhibition at 1.302 µM (NRC-03-nhCoV [4]; [12]): 39%
inhibition at 2.6 µM (NRC-03-nhCoV [4]; [12]): 61%
inhibition at 5.2 µM (NRC-03-nhCoV [4]; [12]): 75%
inhibition at 10.4 µM (NRC-03-nhCoV [4]; [12]): 78%
antiviral effect on MERS-CoV compared with SARS-CoV-2 (MERS-CoV): equally effective against SARS-CoV-2 and MERS-CoV
CC50 (in vitro): 665000 nM

O=C(Nc1ccc([N+](=O)[O-])cc1Cl)c1cc(Cl)ccc1O [Niclosamide]
IC50 (NRC-03-nhCoV [1]; [7]): 160 nM
IC50 (NRC-03-nhCoV [1]; [8]): 162 nM
inhibition at 1.302 µM (NRC-03-nhCoV [2]; [10]): 0%
inhibition at 2.6 µM (NRC-03-nhCoV [2]; [10]): 0%
inhibition at 5.2 µM (NRC-03-nhCoV [2]; [10]): 0%
inhibition at 10.4 µM (NRC-03-nhCoV [2]; [10]): 0%
inhibition during the viral adsorption stage (NRC-03-nhCoV [2]; concentration not given): negligible reduction in viral inhibition
inhibition at 1.302 µM (NRC-03-nhCoV [3]; [11]): 23%
inhibition at 2.6 µM (NRC-03-nhCoV [3]; [11]): 55%
inhibition at 5.2 µM (NRC-03-nhCoV [3]; Severe acute respiratory syndrome coronavirus 2, 5.2 µM, read-out: Viral Replication, percent inhibition): 68%
inhibition at 10.4 µM (NRC-03-nhCoV [3]; Severe acute respiratory syndrome coronavirus 2, 10.4 µM, read-out: Viral Replication, percent inhibition): 70%
inhibition at 1.302 µM (NRC-03-nhCoV [4]; [12]): 16%
inhibition at 2.6 µM (NRC-03-nhCoV [4]; [12]): 21%
inhibition at 5.2 µM (NRC-03-nhCoV [4]; [12]): 21%
inhibition at 10.4 µM (NRC-03-nhCoV [4]; [12]): 37%
virucidal effect (NRC-03-nhCoV [4]): 37%
antiviral effect on MERS-CoV compared with SARS-CoV-2 (MERS-CoV): equally effective against SARS-CoV-2 and MERS-CoV
CC50 (in vitro): 205000 nM
